ChEMBL document CHEMBL3885861, “Open TG-GATES”

Organism: Rattus norvegicus
Experiment: Open TG-GATES - Regimen: Daily Repeat
Assay type: toxicity, organism-based, Sprague-Dawley
Parameters: regimen Daily Repeat, gender Male, age 6 weeks
Settings: in vivo, po, route gavage; for APTT / Bas / Eos / Fbg / Hb / Ht / Lym / MCH / MCHC / MCV / Mono / Neu / PT / Plat / RBC / Ret / WBC: tissue Blood; for KIDNEY_L / KIDNEY_R / KIDNEY_TOTAL: tissue Kidney; for LIVER: tissue Liver; for A/G / ALP / ALT / AST / BUN / CRE / Ca / Cl / DBIL / GLC / IP / K / LDH / Na / PL / RALB / TBIL / TC / TG / TP / gamma-GTP: tissue Plasma
[1] = 100 mg/kg, 72 h, dose level Middle, time 3 day
[2] = 100 mg/kg, […], dose level Middle, time 7 day
[3] = 100 mg/kg, […], dose level Middle, time 14 day
[4] = 100 mg/kg, […], dose level Middle, time 28 day
[5] = 300 mg/kg, 72 h, dose level High, time 3 day
[6] = 300 mg/kg, […], dose level High, time 7 day
[7] = 300 mg/kg, […], dose level High, time 14 day
[8] = 300 mg/kg, […], dose level High, time 28 day

ClC(Cl)(Cl)Cl [CARBON TETRACHLORIDE]
TERMINAL_BW [1]: 216.4 g
APTT [1]: 20.1 s
Bas [1]: 0%
Eos [1]: 1%
Fbg [1]: 220 mg/dL
Hb [1]: 13.9 g/dL
Ht [1]: 40.9%
Lym [1]: 75%
MCH [1]: 21.3 pg
MCHC [1]: 34%
MCV [1]: 62.6 fL
Mono [1]: 3.4%
Neu [1]: 19.6%
PT [1]: 12.6 s
Plat [1]: 123.3 x10_4/uL
RBC [1]: 653.4 x10_4/ul
Ret [1]: 5.6%
WBC [1]: 95 x10_2/uL
KIDNEY_L [1]: 0.9 g
KIDNEY_R [1]: 0.9 g
KIDNEY_TOTAL [1]: 1.8 g
LIVER [1]: 10.9 g
A/G [1]: 1.5
ALP [1]: 1153 IU/L
ALT [1]: 68.6 IU/L
AST [1]: 164.4 IU/L
BUN [1]: 13 mg/dL
CRE [1]: 0.4 mg/dL
Ca [1]: 10.9 mg/dL
Cl [1]: 103.4 meq/L
DBIL [1]: 0.066 mg/dL
GLC [1]: 184.4 mg/dL
IP [1]: 7.3 mg/dL
K [1]: 4 meq/L
LDH [1]: 279.4 IU/L
Na [1]: 140 meq/L
PL [1]: 132.2 mg/dL
RALB [1]: 3.2 g/dL
TBIL [1]: 0.1 mg/dL
TC [1]: 61.6 mg/dL
TG [1]: 30 mg/dL
TP [1]: 5.4 g/dL
gamma-GTP [1]: 1.4 IU/L
TERMINAL_BW [2]: 247.4 g
TERMINAL_BW [3]: 301.8 g
TERMINAL_BW [4]: 377.7 g
APTT [2]: 19.9 s
Bas [2]: 0%
Eos [2]: 1%
Fbg [2]: 229.6 mg/dL
Hb [2]: 13.9 g/dL
Ht [2]: 40.5%
Lym [2]: 83.4%
MCH [2]: 21.7 pg
MCHC [2]: 34.4%
MCV [2]: 63 fL
Mono [2]: 3%
Neu [2]: 12.8%
PT [2]: 12.1 s
Plat [2]: 112.3 x10_4/uL
RBC [2]: 642.2 x10_4/ul
Ret [2]: 5.8%
WBC [2]: 127.1 x10_2/uL
APTT [3]: 22.1 s
Bas [3]: 0%
Eos [3]: 0.8%
Fbg [3]: 217.4 mg/dL
Hb [3]: 14 g/dL
Ht [3]: 41.6%
Lym [3]: 80.2%
MCH [3]: 20.1 pg
MCHC [3]: 33.6%
MCV [3]: 59.6 fL
Mono [3]: 3.2%
Neu [3]: 16%
PT [3]: 12.2 s
Plat [3]: 113 x10_4/uL
RBC [3]: 699 x10_4/ul
Ret [3]: 4%
WBC [3]: 110.8 x10_2/uL
APTT [4]: 20.8 s
Bas [4]: 0%
Eos [4]: 0.6%
Fbg [4]: 209.4 mg/dL
Hb [4]: 14.7 g/dL
Ht [4]: 42.8%
Lym [4]: 78.4%
MCH [4]: 18.3 pg
MCHC [4]: 34.3%
MCV [4]: 53.4 fL
Mono [4]: 3.8%
Neu [4]: 16.8%
PT [4]: 12.5 s
Plat [4]: 111.2 x10_4/uL
RBC [4]: 801.8 x10_4/ul
Ret [4]: 3%
WBC [4]: 148.3 x10_2/uL
KIDNEY_L [2]: 1.1 g
KIDNEY_R [2]: 1.1 g
KIDNEY_TOTAL [2]: 2.2 g
KIDNEY_L [3]: 1.1 g
KIDNEY_R [3]: 1.2 g
KIDNEY_TOTAL [3]: 2.3 g
KIDNEY_L [4]: 1.3 g
KIDNEY_R [4]: 1.3 g
KIDNEY_TOTAL [4]: 2.6 g
LIVER [2]: 13.2 g
LIVER [3]: 15.1 g
LIVER [4]: 18.2 g
A/G [2]: 1.4
ALP [2]: 942.6 IU/L
ALT [2]: 53.4 IU/L
AST [2]: 113.4 IU/L
BUN [2]: 15.4 mg/dL
CRE [2]: 0.4 mg/dL
Ca [2]: 10.6 mg/dL
Cl [2]: 104.4 meq/L
DBIL [2]: 0.074 mg/dL
GLC [2]: 193.8 mg/dL
IP [2]: 7.6 mg/dL
K [2]: 4 meq/L
LDH [2]: 231.2 IU/L
Na [2]: 141 meq/L
PL [2]: 142.8 mg/dL
RALB [2]: 3.2 g/dL
TBIL [2]: 0.1 mg/dL
TC [2]: 63.4 mg/dL
TG [2]: 62.6 mg/dL
TP [2]: 5.5 g/dL
gamma-GTP [2]: 1.4 IU/L
A/G [3]: 1.6
ALP [3]: 1040.6 IU/L
ALT [3]: 106 IU/L
AST [3]: 165.4 IU/L
BUN [3]: 15.2 mg/dL
CRE [3]: 0.4 mg/dL
Ca [3]: 10.7 mg/dL
Cl [3]: 104 meq/L
DBIL [3]: 0.06 mg/dL
GLC [3]: 184.2 mg/dL
IP [3]: 7.6 mg/dL
K [3]: 3.8 meq/L
LDH [3]: 281.4 IU/L
Na [3]: 142 meq/L
PL [3]: 131.2 mg/dL
RALB [3]: 3.5 g/dL
TBIL [3]: 0.1 mg/dL
TC [3]: 64.4 mg/dL
TG [3]: 38.8 mg/dL
TP [3]: 5.7 g/dL
gamma-GTP [3]: 0.8 IU/L
A/G [4]: 1.4
ALP [4]: 760.2 IU/L
ALT [4]: 103.2 IU/L
AST [4]: 131 IU/L
BUN [4]: 16 mg/dL
CRE [4]: 0.5 mg/dL
Ca [4]: 10.3 mg/dL
Cl [4]: 102.6 meq/L
DBIL [4]: 0.072 mg/dL
GLC [4]: 203.6 mg/dL
IP [4]: 6.8 mg/dL
K [4]: 3.8 meq/L
LDH [4]: 390 IU/L
Na [4]: 140.8 meq/L
PL [4]: 122.8 mg/dL
RALB [4]: 3.4 g/dL
TBIL [4]: 0.1 mg/dL
TC [4]: 57 mg/dL
TG [4]: 32.2 mg/dL
TP [4]: 5.9 g/dL
gamma-GTP [4]: 1.2 IU/L
TERMINAL_BW [5]: 213 g
APTT [5]: 21.4 s
Bas [5]: 0%
Eos [5]: 1%
Fbg [5]: 217 mg/dL
Hb [5]: 14.1 g/dL
Ht [5]: 41.3%
Lym [5]: 73%
MCH [5]: 21.6 pg
MCHC [5]: 34.1%
MCV [5]: 63.2 fL
Mono [5]: 4%
Neu [5]: 20.4%
PT [5]: 13.5 s
Plat [5]: 114.2 x10_4/uL
RBC [5]: 655 x10_4/ul
Ret [5]: 5.5%
WBC [5]: 96.3 x10_2/uL
KIDNEY_L [5]: 1 g
KIDNEY_R [5]: 1 g
KIDNEY_TOTAL [5]: 1.9 g
LIVER [5]: 11.1 g
A/G [5]: 1.5
ALP [5]: 1664.6 IU/L
ALT [5]: 124.8 IU/L
AST [5]: 283.8 IU/L
BUN [5]: 14.6 mg/dL
CRE [5]: 0.4 mg/dL
Ca [5]: 10.7 mg/dL
Cl [5]: 103.8 meq/L
DBIL [5]: 0.068 mg/dL
GLC [5]: 178.4 mg/dL
IP [5]: 7.3 mg/dL
K [5]: 3.8 meq/L
LDH [5]: 355.2 IU/L
Na [5]: 140.4 meq/L
PL [5]: 116.4 mg/dL
RALB [5]: 3.1 g/dL
TBIL [5]: 0.1 mg/dL
TC [5]: 49.8 mg/dL
TG [5]: 28.6 mg/dL
TP [5]: 5.3 g/dL
gamma-GTP [5]: 1.2 IU/L
TERMINAL_BW [6]: 248.2 g
TERMINAL_BW [7]: 287.9 g
TERMINAL_BW [8]: 367.6 g
APTT [6]: 20.7 s
Bas [6]: 0%
Eos [6]: 1%
Fbg [6]: 230.4 mg/dL
Hb [6]: 13.5 g/dL
Ht [6]: 39.2%
Lym [6]: 78.8%
MCH [6]: 21.4 pg
MCHC [6]: 34.4%
MCV [6]: 62.3 fL
Mono [6]: 3.6%
Neu [6]: 16.2%
PT [6]: 12.4 s
Plat [6]: 106.7 x10_4/uL
RBC [6]: 629.6 x10_4/ul
Ret [6]: 6%
WBC [6]: 130.8 x10_2/uL
APTT [7]: 23 s
Bas [7]: 0%
Eos [7]: 1%
Fbg [7]: 211.6 mg/dL
Hb [7]: 14.2 g/dL
Ht [7]: 42.3%
Lym [7]: 81.4%
MCH [7]: 19.1 pg
MCHC [7]: 33.7%
MCV [7]: 56.9 fL
Mono [7]: 3%
Neu [7]: 14.2%
PT [7]: 12.6 s
Plat [7]: 101.2 x10_4/uL
RBC [7]: 744.4 x10_4/ul
Ret [7]: 3.5%
WBC [7]: 113.3 x10_2/uL
APTT [8]: 25.3 s
Bas [8]: 0%
Eos [8]: 1%
Fbg [8]: 198.8 mg/dL
Hb [8]: 14.5 g/dL
Ht [8]: 43.1%
Lym [8]: 82.4%
MCH [8]: 17.9 pg
MCHC [8]: 33.6%
MCV [8]: 53.1 fL
Mono [8]: 3.4%
Neu [8]: 13.2%
PT [8]: 13.7 s
Plat [8]: 99.7 x10_4/uL
RBC [8]: 811.4 x10_4/ul
Ret [8]: 2.3%
WBC [8]: 151.6 x10_2/uL
KIDNEY_L [6]: 1.1 g
KIDNEY_R [6]: 1.1 g
KIDNEY_TOTAL [6]: 2.2 g
KIDNEY_L [7]: 1.1 g
KIDNEY_R [7]: 1.1 g
KIDNEY_TOTAL [7]: 2.2 g
KIDNEY_L [8]: 1.2 g
KIDNEY_R [8]: 1.2 g
KIDNEY_TOTAL [8]: 2.5 g
LIVER [6]: 13.7 g
LIVER [7]: 15.9 g
LIVER [8]: 20.8 g
A/G [6]: 1.6
ALP [6]: 1583 IU/L
ALT [6]: 72.2 IU/L
AST [6]: 139.2 IU/L
BUN [6]: 16 mg/dL
CRE [6]: 0.4 mg/dL
Ca [6]: 10.6 mg/dL
Cl [6]: 104.4 meq/L
DBIL [6]: 0.074 mg/dL
GLC [6]: 186.2 mg/dL
IP [6]: 8.5 mg/dL
K [6]: 4.1 meq/L
LDH [6]: 305.4 IU/L
Na [6]: 140.6 meq/L
PL [6]: 129.2 mg/dL
RALB [6]: 3.3 g/dL
TBIL [6]: 0.1 mg/dL
TC [6]: 56 mg/dL
TG [6]: 44.4 mg/dL
TP [6]: 5.4 g/dL
gamma-GTP [6]: 1.4 IU/L
A/G [7]: 1.6
ALP [7]: 1597.4 IU/L
ALT [7]: 149.4 IU/L
AST [7]: 238.6 IU/L
BUN [7]: 16.4 mg/dL
CRE [7]: 0.5 mg/dL
Ca [7]: 10.4 mg/dL
Cl [7]: 103.8 meq/L
DBIL [7]: 0.064 mg/dL
GLC [7]: 187.6 mg/dL
IP [7]: 7.5 mg/dL
K [7]: 3.9 meq/L
LDH [7]: 389.6 IU/L
Na [7]: 140.8 meq/L
PL [7]: 113 mg/dL
RALB [7]: 3.4 g/dL
TBIL [7]: 0.1 mg/dL
TC [7]: 51.6 mg/dL
TG [7]: 21 mg/dL
TP [7]: 5.7 g/dL
gamma-GTP [7]: 1.4 IU/L
A/G [8]: 1.3
ALP [8]: 1255 IU/L
ALT [8]: 300.8 IU/L
AST [8]: 396.2 IU/L
BUN [8]: 17.8 mg/dL
CRE [8]: 0.5 mg/dL
Ca [8]: 10.6 mg/dL
Cl [8]: 103.4 meq/L
DBIL [8]: 0.092 mg/dL
GLC [8]: 174.2 mg/dL
IP [8]: 6.4 mg/dL
K [8]: 3.9 meq/L
LDH [8]: 534.6 IU/L
Na [8]: 141.6 meq/L
PL [8]: 103.6 mg/dL
RALB [8]: 3.4 g/dL
TBIL [8]: 0.2 mg/dL
TC [8]: 39.4 mg/dL
TG [8]: 20.8 mg/dL
TP [8]: 5.9 g/dL
gamma-GTP [8]: 1.2 IU/L
